In ChEMBL document CHEMBL1201862, “PubChem BioAssay data set” (2004):
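Growth conditions: 96-well plates. Treatment: test compound, 48 hours, 5 concentrations. Analysis: linear interpolation between bracketing concentrations; unreached endpoints set to highest concentration. GI50: concentration for 50% inhibition of growth.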 Active and inactive are the calls of the source. No stated cut-off is given here; in the data, active = GI50 up to about 1.1 µM and inactive = higher.

Legend:
Assay in all cases: inhibition of tumour cell growth, NCI panel, 48 h
[1] = test system: OVCAR-8
[2] = test system: RXF 393
[3] = test system: TK-10
[4] = test system: ACHN
[5] = test system: DMS-114
[6] = test system: Malme-3M
[7] = test system: LOX IMVI
[8] = test system: DMS-273
[9] = test system: NCI-H23
[10] = test system: SW-620
[11] = test system: SNB-78
[12] = test system: NCI-H226
[13] = test system: UACC-62
[14] = test system: HCT-15
[15] = test system: DLD-1
[16] = test system: HCT-116
[17] = test system: A498
[18] = test system: SK-MEL-2
[19] = test system: UACC-257
[20] = test system: XF498
[21] = test system: KM12
[22] = test system: HOP-18
[23] = test system: SNB-19
[24] = test system: SK-MEL-28
[25] = test system: HOP-92
[26] = test system: EKVX
[27] = test system: KM-20L2
[28] = test system: OVCAR-4
[29] = test system: COLO 205
[30] = test system: OVCAR-3
[31] = test system: SF-539
[32] = test system: CAKI-1
[33] = test system: SN12C
[34] = test system: HOP-62
[35] = test system: A549
[36] = test system: IGROV-1
[37] = test system: NCI-H460
[38] = test system: SF-268
[39] = test system: U-251
[40] = test system: OVCAR-5
[41] = test system: SK-MEL-5
[42] = test system: SF-295
[43] = test system: 786-0
[44] = test system: MDA-MB-231
[45] = test system: HCC 2998
[46] = test system: M14
[47] = test system: K562
[48] = test system: NCI/ADR-RES
[49] = test system: HL-60
[50] = test system: MDA-N
[51] = test system: MCF7
[52] = test system: RPMI-8226
[53] = test system: SK-OV-3
[54] = test system: DU-145
[55] = test system: PC-3
[56] = test system: NCI-H522
[57] = test system: SNB-75
[58] = test system: MOLT-4
[59] = test system: MDA-MB-435
[60] = test system: UO-31
[61] = test system: T47D
[62] = test system: HT-29
[63] = test system: M19-MEL
[64] = test system: BT-549
[65] = test system: SR
[66] = test system: LXFL 529
[67] = test system: CCRF-CEM

Measured: GI50

CCCCCC(=O)OCCOCCOCCOCCOCCOCc1ccccc1
> 100 µM: [14]
inactive: [1] > 100 µM | [2] > 100 µM | [3] > 100 µM | [4] > 100 µM | [5] > 100 µM | [6] > 100 µM | [7] > 100 µM | [8] > 100 µM | [9] > 100 µM | [10] > 100 µM | [11] > 100 µM | [12] > 100 µM | [13] > 100 µM | [15] > 100 µM | [16] > 100 µM | [17] > 100 µM | [18] > 100 µM | [19] > 100 µM | [20] > 100 µM | [21] > 100 µM | [22] > 100 µM | [23] > 100 µM | [24] > 100 µM | [25] > 100 µM | [26] > 100 µM | [27] > 100 µM | [28] > 100 µM | [29] > 100 µM | [30] > 100 µM | [31] > 100 µM | [32] > 100 µM | [33] > 100 µM | [34] > 100 µM | [35] > 100 µM | [36] > 100 µM | [37] > 100 µM | [38] > 100 µM | [39] > 100 µM | [40] > 100 µM | [41] > 100 µM | [42] > 100 µM | [43] > 100 µM

COc1ccc(C(=O)/C(Br)=C/C(=O)O)cc1
23.5 µM: [14]
inactive: [1] 21 µM | [3] 51.3 µM | [4] 55 µM | [5] 18.6 µM | [6] 14.8 µM | [7] 20.5 µM | [44] 28.2 µM | [8] 9.82 µM | [45] 19.2 µM | [46] 26.2 µM | [9] 26.8 µM | [47] 29.5 µM | [12] 27.3 µM | [13] 7.91 µM | [48] 21.3 µM | [15] 12.6 µM | [49] 27.5 µM | [50] 20 µM | [17] 25.1 µM | [18] 9.48 µM | [51] 9.75 µM | [19] 26.9 µM | [52] 11.5 µM | [53] 69.8 µM | [20] 4.28 µM | [54] 32 µM | [21] 14.7 µM | [55] 29.7 µM | [56] 7 µM | [22] 45.8 µM | [57] 35.5 µM | [23] 77.6 µM | [58] 17.6 µM | [24] 23.3 µM | [59] 25.8 µM | [25] 28.4 µM | [60] 37.2 µM | [26] 37.8 µM | [27] 29.5 µM | [61] 53.2 µM | [62] 76.7 µM | [63] 14.5 µM | [28] 32.7 µM | [29] 18.7 µM | [64] 17.9 µM | [32] 39.3 µM | [33] 37.8 µM | [34] 17.4 µM | [65] 25.1 µM | [35] 40.2 µM | [37] 23.2 µM | [38] 31.6 µM | [39] 15.6 µM | [40] 42.1 µM | [41] 20.7 µM | [42] 37.9 µM

[Zn+2][N+]12CCN3CCN4CCN(CC1)[PH]432 (centres undefined)
inactive: [1] > 100 µM | [2] > 100 µM | [3] > 100 µM | [4] > 100 µM | [5] > 100 µM | [6] > 100 µM | [7] > 100 µM | [66] > 100 µM | [8] > 100 µM | [45] > 100 µM | [46] > 100 µM | [9] > 100 µM | [10] > 100 µM | [11] > 100 µM | [47] > 100 µM | [12] > 100 µM | [13] > 100 µM | [15] > 100 µM | [16] > 100 µM | [49] > 100 µM | [17] > 100 µM | [67] > 100 µM | [18] > 100 µM | [19] > 100 µM | [52] > 100 µM | [53] > 100 µM | [21] > 100 µM | [56] > 100 µM | [22] > 100 µM | [57] > 100 µM | [23] > 100 µM | [58] > 100 µM | [24] > 100 µM | [60] > 100 µM | [26] > 100 µM | [27] > 100 µM | [62] > 100 µM | [63] > 100 µM | [28] > 100 µM | [29] > 100 µM | [30] > 100 µM | [31] > 100 µM | [33] > 100 µM | [34] > 100 µM | [65] > 100 µM | [35] > 100 µM | [36] > 100 µM | [37] > 100 µM | [39] > 100 µM | [40] > 100 µM | [41] > 100 µM | [42] > 100 µM | [43] > 100 µM
> 100 µM: [14]
